Format in all cases: in vivo, rat
Assay [1] relates to Platelet-derived growth factor (PDGF). Nature of the assay: PDGF expression in retina by immunohistochemistry. To be noted: diabetic retina, curcumin 0.01% diet. The method, then: (§1) Histopathology: The eye balls from selected animals were collected in fixative 4% paraformaldehyde solution in separately labeled vials. The tissues were given some nicks so as to facilitate penetration of fixative into deep tissue. They were kept at room temperature for 24-48 hrs followed by replacing the fixative with 20 mM sodium phosphate buffer. Buffer was scheduled to be replaced with fresh buffer one each week until histopathological processing. Tissues were embedded in paraffin and sections were taken in microtome. Coated slides are used for immunohistochemistry and immunofluorescence, whereas uncoated slides for hemotoxylin and eosin (H & E) staining.

Assay [2] concerns STZ-induced diabetic rats. Nature of the assay: Electroretinogram, oscillatory potentials (OPs). To be noted: curcumin 0.01% diet; D 334.2. The method, then:
Experimental design: Male Wistar-NIN rats with an average body weight of 120 gms are obtained from the National center for laboratory animal sciences, National institute of Nutrition, Hyderabad (NCLAS, NIN). Animals were maintained at NCLAS, MN and kept for acclimatization in an experimental room for two weeks. Diabetes was induced in overnight fasted animals by a single intraperitoneal injection of STZ (30 mg/kg) in 0.1 M citrate buffer, pH 4.5. Another set of rats, which received only a vehicle, served as the control (Group-C; n=6). Fasting blood glucose levels were measured 72 h after STZ injection. Animals having blood glucose levels >150 mg/dL were considered diabetic and all the animals are divided into four groups as shown in the Table 3 below.
All the animals were housed in individual cages maintained on their respective diets for 12. weeks and drinking water was provided ad libitum throughout the study period. Daily food intake and weekly body weights, fasting glucose levels were noted. […]
Electroretinogram (ERG) Analysis: Diabetic retinoapthy is characterized by disturbances in retinal function. The retinal function can be assessed by electroretinogram. […]
Animals were dark-adapted for overnight and prepared for the ERG procedure under dim red illumination. […] The oscillatory potentials were extracted from the wave form and the sum of all OPs was calculated.

For assay [3], the system named is STZ-induced diabetic rats. Description: Total and soluble protein in lens homogenate (Lowry). As for the experimental part: Blood/Lens collection and processing: Blood was drawn once in every week from retro orbital plexus for glucose and insulin estimation. At the end of 12 weeks, animals were sacrificed by CO2 asphyxiation and lenses were dissected by posterior approach and stored at −70° C. until further analysis. A 10% homogenate was prepared from 3-5 pooled lenses in 50 mM phosphate buffer, pH 7.4. All the biochemical parameters were analyzed in the soluble fraction of the lens homogenate (15,000x g at 4° C.) except for lens malondialdehyde (MDA), which was determined in the total homogenate.
Biochemical estimations: Lens MDA, as thiobarbituric acid reacting substances (TBARS) protein carbonyl content were determined according to the methods for estimating the protein carbonyl content described by Suryanarayana P et al. in the research paper “Curcumin and turmeric delay streptozotocin-induced diabetic cataract in rats,” Invest Ophthalmol Vis Sci 2005; 46(6):2092-9. Total, soluble and insoluble protein was assayed by Lowry method using bovine serum albumin (BSA) as standard.
Individual lenses were weighed and pooled into 4 lenses for a pool, and such 4-5 pools were formed per group. A 10% homogenate was prepared in 50 mM sodium phosphate buffer pH 7.4, with tissue homogenizer at intermittent time gaps to avoid excess heat generation. Separate aliquots of total homogenate (TH) were made 250 μl for TBARS assay, 150 μl for sorbitol estimation, and 20 μl for protein estimation. Remaining homogenate was centrifuged at 10,000 RPM for 30 min at 4° C. Supernatant was separated into labelled vials, as total soluble protein (TSP).
Determining soluble percentage of protein in lens homogenate: Protein estimation was done in lens homogenate and soluble fraction by Lowry's method. Amount of protein present per gram weight of lens was calculated. Percentage of soluble protein was calculated by multiplying the fraction of soluble protein by 100.

The subject of assay [4] is STZ-induced diabetic rats. Description: Retina histology (H & E), thickness of retinal layers. To be noted: curcumin 0.01% diet, Table 6. As for the experimental part:
as §1
A representative table of retinal layers thickness (in μm) measured by the use of Lieca application suit, Leica, Switzerland. C, Non diabetic control; D, Diabetic control; D+RL, Diabetes+Regular Lutein; D+SL, Diabetes+Soluble Lutein; GCL, ganglion cell layer; IPL, inner plexiform layer; INL, inner nuclear layer; OPL, outer plexiform layer; ONL, outer nuclear layer; PRL, photo receptor layer.

The test system of assay [5] is STZ-induced diabetic rats. Nature of the assay: Size exclusion HPLC of lens soluble protein. To be noted: vs Group-D. As for the experimental part:
(§2) Sodium dodecyl sulfate polyacrylamide gel electrophoresis (SDS-PAGE) and size exclusion chromatography of lens proteins: Subunit profile and cross-linking of soluble proteins were analyzed on 10% polyacrylamide in the presence of sodium dodecyl sulfate (SDS) under reducing conditions. Crystalline distribution in the soluble protein fraction was performed by size exclusion chromatography on a 600×7.5 mm TSK-G4000 SW column (TOSOH Co., Japan) using a HPLC system. The column was equilibrated with 0.1 M sodium phosphate buffer pH 6.7 containing 0.1 M sodium chloride at a flow rate of 1 ml/min.

Assay [6] relates to Nerve Growth Factor (NGF). Nature of the assay: NGF protein in retina by immunofluorescence. To be noted: diabetic retina, curcumin 0.01% diet. The method, then: as §1
Assay [7] concerns Rhodopsin (Rho). Nature of the assay: Rhodopsin mRNA in retina by real-time PCR. The following applies: diabetic retina, curcumin 0.01% diet. As for the experimental part:
(§3) Quantitative real-time PCR: Total RNA was extracted from the retina of rats using Tri reagent. Isolated RNA was further purified by RNeasy Mini Kit (Qiagen) and quantified by measuring the absorbance at 260 and 280 nm on ND1000 spectrophotometer (NanoDrop technologies, Delaware, USA). The quality of RNA preparation was assessed by electrophoresis on a denaturing agarose gel. Two μg of total RNA was reverse transcribed using High Capacity cDNA Reverse Transcription kit. Reverse transcription reaction was carried out with a thermocycler (ABI 9700). Real-time polymerase chain reaction (PCR) (ABI-7500) was performed in triplicates with 25 ng cDNA templates using SYBR green master mix with gene specific primers. Normalization and validation of data were carried using (3-actin as an internal control and data were compared between samples according to comparative threshold cycle (2^-ΔΔct) method.

Assay [8] deals with STZ-induced diabetic rats. Nature of the assay: SDS-PAGE protein profiling of lens soluble fraction. The following applies: vs group-D. As for the experimental part: as §2
SDS-PAGE protein profiling: Differences in protein distribution pattern were observed by running the lens protein samples on 12% polyacrylamide gel. 30 μg of protein was loaded per well along with molecular weight marker for SDS-PAGE (Broad range SDS-PAGE marker, BioRad). […] FIG. 3 represents the SDS-PAGE pattern of soluble fraction of lens proteins, as shown in the drawings accompanied with the specification.

Assay [9] has as its system Nerve Growth Factor (NGF). Nature of the assay: NGF gene expression in retina by real-time PCR. The following applies: diabetic retina, curcumin 0.01% diet. As for the experimental part: as §3
Assay [10] has as its system Rhodopsin (Rho). Description: Rhodopsin protein in retina by immunofluorescence. To be noted: diabetic retina, curcumin 0.01% diet. As for the experimental part:
as §1

In assay [11] the test system is STZ-induced diabetic rats. Nature of the assay: Slit lamp examination and cataract grading (diabetic cataract). The following applies: end of ten weeks; lutein 0.5% or curcumin 0.01% in diet; Group-D stage 4. The method, then:
Male Wistar strain (WNIN) rats (2 months old; Average BW of 213±14 g) obtained from the National Center for Laboratory Animal Sciences, National Institute of Nutrition, Hyderabad, India (NCLAS, NIN). Animals were maintained at NCLAS, NIN and kept for acclimatization in an experimental room for two weeks. Diabetes was induced in overnight fasted animals by a single intraperitoneal injection of STZ (30 mg/kg) in 0.1 M citrate buffer, pH 4.5. Another set of rats, which received only a vehicle, served as the control (Group I; n=12). Fasting blood glucose levels were measured 72 h after STZ injection. Animals having blood glucose levels >150 mg/dL were considered diabetic and those were only divided into five groups (Group II-VI). A group of control rats (n=6) were fed with 0.01% soluble curcumin (Group VII) and soluble 0.5% lutein alone (Group VIII).
Slit lamp examination and Cataract grading: Eyes were examined every week using a slit lamp bio microscope on dilated pupils. Initiation and progression of lens opacity was graded into five categories (0-4).
Cataract development and progression: Onset and progression of cataract is monitored by slit lamp biomicroscope examination as described below: Eyes were examined every week using a slit lamp biomicroscope (Kowa SL15, Portable, Japan) on dilated pupils.

From patent US20170143646A1, “EFFECT OF LIPOPHILIC NUTRIENTS ON DIABETIC EYE DISEASES” (OmniActive Health Technologies Limited, priority 2014, published 2017) come the findings set out here.

The structures appear in SMILES notation.

With `COc1cc(/C=C/C(=O)CC(=O)/C=C/c2ccc(O)c(OC)c2)ccc1O` [RC, curcumin], the PDGF expression entry in [1] is “inhibited diabetes induced PDGF over expression”. Moreover, in [2], the “sum of OPs (amplitude)” value worked out at 445.7 μV. The “loss of soluble protein compared to group-D” value in assay [3] (lens) is “significantly prevented loss of soluble protein”. For the same molecule, the Total protein in assay [3] (lens homogenate, mean ± SEM, n = 6, lutein 0.5% or curcumin 0.01% diet, 12 weeks) amounted to 368.50 ± 19.2 mg/gm lens. The molecule also had a Soluble protein in assay [3] (lens soluble fraction, mean ± SEM, n = 6) of 202.63 ± 21.6 mg/gm lens. Also, in assay [4], the “GCL + IPL thickness” value turned out to be 35.692 μ, the INL thickness was 13.648 μ, the ONL thickness amounted to 30.108 μ and the OPL thickness is recorded as 5.685 μ. Further, in assay [4], the PRL thickness is reported as 19.520 μ and the Total retinal thickness is 106.014 μ. Besides, the “size exclusion profile of total soluble protein (TSP)” value in assay [5] is “normalized the profile of TSP”. Further, the NGF protein entry in [6] is recorded as “prevented loss of NGF protein”. Moreover, the “mRNA levels of Rho gene” value in [7] is on record as “prevented its decline”. Further, in [8], the “band of aggregated proteins at ~50 kDa” value was “reduced band intensity”. In assay [9], the NGF gene expression entry is “equal beneficiary effect in preventing down regulation of NGF gene”. The Rho protein expression entry in assay [10] is reported as “prevented loss of Rho protein expression”. Besides, the “severity of cataracts (stage 0-4)” value in [11] is on record as 3.0 stage.
